Reference: patent US20080153792A1, “Drug Identification and Treatment Method” (priority 2006, published 2008)
pIC50: −log10 of the molar value. Read-outs that look alike come from different tables or passages of the source.

What was measured:
[1] = system: NF-κB in spleen cells of ICR mice; experiment: activated NF-κB in spleen cell nuclei after LPS, Example 8; type: in vivo, mouse; conditions: about 40 mg/kg i.p. 24 h before and 1 h after LPS; spleens 1.5 hours after LPS
Protocol: The capacity of selected compounds to treat LPS induced shock/inflammation in mice was examined by a protocol similar to the protocol described above. Five groups of three ICR mice weighing about 30 g were each treated by intraperitoneal injection with 120 μL vehicle (30% sulfobutylether-cyclodextrin in water), androst-5-ene-3α,7β,16α,17β-tetrol in vehicle, androst-5-ene-3β,4β,16α,17β-tetrol in vehicle or 4β-acetoxyandrost-5-ene-3β,16α,17β-triol in vehicle. All drug and vehicle formulations were solutions, not suspensions. The sulfobutylether-cyclodextrin was obtained commercially (Captisol™, www.cyclexinc.com). There were two vehicle control groups one group received vehicle alone and the other received vehicle plus LPS. […] Drug was administered at about 40 mg/kg (1.2 mg drug/animal for each administration of the drugs). Spleens were harvested from the animals at 1.5 hours after injection of LPS and spleen cells were lysed and assayed for activated NF-κB by isolating nuclei from spleen cells and measuring NF-κB from the lysed nuclei. […] The level of activated NF-κB in spleen cells from the animals that were treated with vehicle and no LPS, was essentially the same as the activated NF-κB in spleen cells from drug treated animals.

MG-63 cells = experiment: reversal of glucocorticoid effects in MG-63 osteosarcoma cells; type: cell-based, human
NF-κB = experiment: NF-κB-bla THP-1 β-lactamase reporter assay; type: cell-based, human; conditions: 50% of the maximum inhibition the compound can induce, averages of 2-4 assays
[2] = system: human peripheral blood mononuclear cells (PBMC); experiment: human mixed lymphocyte reaction (MLR); type: cell-based; conditions: 6 days
Protocol: Human mixed lymphocyte reaction (MLR). The capacity of 3β,16α-dihydroxy-17-oxoandrostane, 3β,17β-dihydroxy-16-oxoandrostane, 17α-ethynylandrost-5-ene-3β,7β,17β-triol, and 17β-aminoandrost-5-ene-3β-ol to affect antigen specific stimulation in which human T lymphocytes respond to a specific foreign antigen (major histocompatibility complex).
Blood samples were obtained from 3 (2 males, […]) fasting, healthy human volunteers of 23-31 years old. […] The subjects were bled between […] to limit possible fluctuations in the circulating levels of hormones or cytokines that could have influenced the in vitro responses of their lymphocytes. Peripheral blood mononuclear cells (PBMC) were isolated by centrifugation on Ficoll-Hypaque (density 1.077, Biochrom AG, Berlin, Germany) gradients and resuspended in culture medium (RPMI 1640 supplemented with 2 mM L-glutamine, penicillin (100 U/mL) and streptomycin ([…]) (Invitrogen s.rl., Milan, Italy). Autologous (responder) inactivated plasma was used at 10%. Five hundred thousand responder PBMC (PBMCr) and 500,000 allogeneic irradiated (30 Gy) stimulator PBMC (PBMCs) were mixed at a ratio of 1:1 in 200 μL medium and cultured for 6 days in flat bottom 96 well plates (Nunc, Roskilde, Denmark) at a concentration of 300 nM or 30 nM for each of the 4 compounds. The compounds were dissolved in ethanol and then diluted to the desired concentration with culture medium leading to a final solution containing 0.01% of ethanol. This vehicle was used as control. Controls also included PBMCr and PBMCs cultured separately. During the last 8 hours of the culture period the PBMC were pulsed with 1 μCi/well [^3H] thymidine (Amersham, Milan, Italy). The cells were then harvested and radioactivity incorporation measured with a beta cell counter. The mean cpm of quadruplicate wells was calculated. Proliferation of T cells was expressed as a stimulation index: SI=cpm (PMBCs xPBMCr)/cpm (PBMCr)+cpm (PBMCs). Statistical analysis was performed using the Student's t test. The cpm obtained from quadruplicate of each test compound were compared to proliferative responses obtained in control PBMCr and PBMCs cultured in the presence of the vehicle. Differences were considered significant at p<0.05.

Balb/c mice, ear burn = experiment: thermal injury model using mouse ear tissue; type: in vivo; conditions: injection in propylene glycol after burn
Protocol: A thermal injury model using mouse ear tissue was used to characterize compounds for their capacity to treat inflammation associated with thermal trauma. […] Groups of Balb/c mice, approximately nine weeks old were given an identifying mark and then divided into control and treated subgroups. The thickness of the ear to be immersed in hot water was recorded, and then the entire ear of the anesthetized mouse was dipped into 52° C. water for 24 seconds. Each mouse was returned to its cage after an injection of either the propylene glycol vehicle (control) or 100 mg of compound in propylene glycol. Ear swelling changes were monitored on individual mice at pre-burn, and at various times after thermal injury. Ear swelling changes were monitored on individual mice at pre-injury and at 1, 3, 6, 9, 12, 18, 24 and 48 hours after thermal injury. Animals were treated with 100 mg of dehydroepiandrosterone (DHEA) dissolved in propylene glycol.

female SJL/J mice, EAE = experiment: experimental allergic encephalomyelitis (EAE), PLP 139-151, Example 6; type: in vivo, mouse; conditions: 5 mg/kg daily by oral gavage, through day 26
From the text: Treatment of autoimmune neurodegeneration. Three compounds, 17β-aminoandrost-5-ene-3β-ol, 17β-dimethylaminoandrost-5-ene-3β-ol and 17β-methylaminoandrost-5-ene-3β-ol were characterized for their capacity to ameliorate experimental allergic encephalomyelitis (EAE) in mice. This demyelinating condition is extensively used as a model for multiple sclerosis in humans and for testing of new therapies for treating multiple sclerosis, e.g., B. F. Bebo Jr. et al., J. Neurosci. Res. 52:420-426 1998; R. R. Voskuhl et al., Neuroscientist, 7:258-270 2001; H. Offner et al., J. Neuroimmunol., 130:128-139 2002.
In this protocol, the compounds were administered to female SJL/J mice by oral gavage at the onset of disease symptoms. An antigen was used to initiate the EAE condition in the mice. […] Immunization with this peptide antigen initiates an autoimmune Th1 mediated demyelinating disease of the central nervous system. The antigen was prepared by solid phase synthesis and purified by high-performance liquid chromatography. […] The immunization protocol was subcutaneous injection over four sites on the hind flank on day 0. After immunization. the mice were assessed daily for clinical signs of EAE using the following scale: 0=no clinical signs or symptoms; 1=limp tail; 2=mild hind limb weakness and limp tail; 3=moderate hind limb weakness and limp tail or mild ataxia; 4=severe hind limb weakness and mild forearm weakness with moderate ataxia; 5=paraplegia with no more than moderate forelimb weakness; 6=paraplegia with severe forelimb weakness or severe ataxia or moribund condition.
Mice in the vehicle control group began to show observable symptoms of EAE at about 10-11 days after immunization with the PLP antigen, which is typical for the EAE disease model. The animals were dosed daily with 17β-aminoandrost-5-ene-3β-ol, 17β-dimethylaminoandrost-5-ene-3β-ol or 17β-methylaminoandrost-5-ene-3β-ol by oral gavage beginning at day 1, which was 1 day after immunization.

[3] = system: CD1 male mice, carrageenan-λ induced pleurisy; experiment: carrageenan-λ induced lung (pleural cavity) inflammation in mice; type: in vivo, mouse; conditions: 40 mg/kg by oral gavage, about 0.5 mg/mouse
[4] = metabolic stability in liver microsomes: human
Protocol: (§1) The protocol was performed as follows. […] (2) Set up samples as follows. […] (4) The internal standard/acetonitrile solution.

[5] = metabolic stability in liver microsomes: mouse; conditions: 10 min
Protocol: as §1

[6] = metabolic stability in liver microsomes, species not stated; type: in vitro ADME; conditions: compared with androst-5-ene-3β,17β-diol reference compound
Protocol: as §1

In the case of `C[C@]12CC[C@H]3[C@@H](CC=C4[C@@H](O)[C@@H](O)CC[C@@]43C)[C@@H]1C[C@@H](O)[C@@H]2O` [3β,4β,16α,17β-tetrahydroxyandrost-5-ene], the “decrease of NF-κB activation compared to LPS+vehicle control group” value [1] was “about 50%”.
With `CC12CCC(O)CC1=CC(=O)C1C2CCC2(C)C1CCC2(C)O` (stereo not drawn) [3β,17β-dihydroxy-7-oxo-17α-methylandrost-5-ene] the “osteoprotegerin levels in the presence of 30 nM dexamethasone” value (MG-63 cells; 100 nM compound) was “increased osteoprotegerin levels” and the pIC50 (NF-κB; after LPS stimulation, read-out: IC50 for inhibition of NF-κB activation) was < 5.00.
For `C[C@]12CC[C@H]3[C@@H](CCC4C[C@@H](O)CC[C@@]43C)[C@@H]1CC(=O)[C@@H]2O` (stereo partly drawn) [3β,17β-dihydroxy-16-oxoandrostane], the “immune suppression in the MLR” value ([2]; either 300 nM or 30 nM, p>0.05) was “not appreciably immune suppressive”.
With `CC(=O)O[C@@H]1C2=CC[C@H]3[C@@H]4C[C@@H](O)[C@H](O)[C@@]4(C)CC[C@@H]3[C@@]2(C)CC[C@@H]1O` [4β-acetoxy-3β,16α,17β-trihydroxyandrost-5-ene] the “decrease of NF-κB activation compared to LPS+vehicle control group” value [1] was “about 50%”.
For `C[C@]12CC[C@H](O)CC1=CC[C@@H]1[C@@H]2CC[C@]2(C)C(=O)[C@H](Br)C[C@@H]12` [16α-bromodehydroepiandrosterone], the “protection against progressive ischemia after thermal injury to the ear” value (“protection against progressive ischemia” below) (Balb/c mice, ear burn) was “protected treated animals against much of the ischemic consequences”.
For `C[C@]12CC[C@H](O)CC1=CC[C@@H]1[C@@H]2CC[C@]2(C)C(=O)[C@H](Cl)C[C@@H]12` [16α-chlorodehydroepiandrosterone], the “protection against progressive ischemia” value (Balb/c mice, ear burn) was “only slightly protective”.
In the case of `C[C@]12CC[C@H](O)CC1=CC[C@@H]1[C@@H]2CC[C@]2(C)C(=O)[C@H](O)C[C@@H]12` [16α-hydroxydehydroepiandrosterone], the “protection against progressive ischemia” value (Balb/c mice, ear burn) was “less protective”.
For `C[C@]12CC[C@H]3[C@@H](CC=C4C[C@@H](O)CC[C@@]43C)[C@@H]1CC[C@@H]2N` [17β-aminoandrost-5-ene-3β-ol], the “activity on clinical severity of EAE symptoms” value (from here on “activity on clinical severity”) (female SJL/J mice, EAE) was “active”, the “anti-inflammation activity versus vehicle controls” value [3] was “statistically significant anti-inflammation activity” and the “immune suppression in the MLR” value ([2]; 300 nM, p<0.05) was “moderately immune suppressive”.
In the case of `CN(C)[C@H]1CC[C@H]2[C@@H]3CC=C4C[C@@H](O)CC[C@]4(C)[C@H]3CC[C@]12C` [17β-dimethylaminoandrost-5-ene-3β-ol], the “activity on clinical severity” value (female SJL/J mice, EAE) was “active”.
For `CN[C@H]1CC[C@H]2[C@@H]3CC=C4C[C@@H](O)CC[C@]4(C)[C@H]3CC[C@]12C` [17β-methylaminoandrost-5-ene-3β-ol], the “activity on clinical severity” value (female SJL/J mice, EAE) was “active”.
For `C[C@]12CC[C@H]3[C@@H]([C@H](O)C=C4C[C@H](O)CC[C@@]43C)[C@@H]1C[C@@H](O)[C@@H]2O` [androst-5-ene-3α,7α,16α,17β-tetrol], the “parent remaining human microsomes” value ([4]; 10 min) was 100% (10 min) and the “parent remaining mouse microsomes” value [5] was 100% (10 min).
In the case of `C[C@]12CC[C@H]3[C@@H]([C@H](O)C=C4C[C@@H](O)CC[C@@]43C)[C@@H]1C[C@@H](O)[C@@H]2O` [androst-5-ene-3β,7α,16α,17β-tetrol], the “parent remaining human microsomes” value ([4]; 10 min) was 100% (10 min), the “osteoprotegerin levels in the presence of 30 nM dexamethasone” value (MG-63 cells; 10 nM compound) was “near normal osteoprotegerin levels” and the pIC50 (NF-κB; Homo sapiens, THP-1, read-out: IC50 for inhibition of NF-κB activation, after LPS stimulation) was < 5.00. The “parent remaining mouse microsomes” value [5] was 100% (10 min).
With `C[C@]12CC[C@H]3[C@@H](CC=C4C[C@@H](O)CC[C@@]43C)[C@@H]1C[C@@H](O)[C@@H]2O` [androst-5-ene-3β,16α,17β-triol] the “metabolism by microsomes” value [6] was “metabolized by microsomes at a rate similar to the androst-5-ene-3β,17β-diol reference compound”.
In the case of `C[C@]12CC[C@H]3[C@@H](CC=C4C[C@@H](O)CC[C@@]43C)[C@@H]1CC[C@@H]2O` [androst-5-ene-3β,17β-diol], the “parent remaining human microsomes” value ([4]; 10 min) was 39% (10 min), the “parent remaining human microsomes” value ([4]; 90 min) was 30% (90 min) and the “parent remaining mouse microsomes” value [5] was 25% (10 min). For the same compound, the “protection against progressive ischemia” value (Balb/c mice, ear burn) was “protected treated animals against much of the ischemic consequences”.
